# Measured values: patent publication US9580435B2, “Pyrrolo[2,3-D]pyrimidine derivatives as CB2 receptor agonists” (priority 2013, dated 2017)
# Like-named read-outs stand apart in the source and are kept apart here.
# What was measured:
# human CB1 receptors = biological target: T1, human CB1 receptors (Homo sapiens, UniProt P21554); assay: functional cAMP assay, CHO cells expressing human CB1 receptors; format: cell-based
# T1 construct: expressed in transfected cells; host or cells: CHO cells
# Protocol: (§1) CHO cells expressing human CB1 or CB2 receptors are seeded 17-24 hours prior to the experiment 50.000 cells per well in a black 96 well plate with flat clear bottom (Corning Costar #3904) in DMEM (Invitrogen No. 31331), lx HT supplement, with 10% fetal calf serum and incubated at 5% CO2 and 37° C. in a humidified incubator. The growth medium was exchanged with Krebs Ringer Bicarbonate buffer with 1 mM IBMX and incubated at 30° C. for 30 min. Compounds were added to a final assay volume of 100 μl and incubated for 30 min at 30° C. Using the cAMP-Nano-TRF detection kit the assay (Roche Diagnostics) was stopped by the addition of 50 μl lysis reagent (Tris, NaCl, 1.5% Triton X100, 2.5% NP40, 10% NaN3) and 50 μl detection solutions (20 μM mAb Alexa700-cAMP 1:1, and 48 μM Ruthenium-2-AHA-cAMP) and shaken for 2 h at room temperature. The time-resolved energy transfer is measured by a TRF reader (Evotec Technologies GmbH), equipped with a ND:YAG laser as excitation source. The plate is measured twice with the excitation at 355 nm and at the emission with a delay of 100 ns and a gate of 100 ns, total exposure time 10 s at 730 (bandwidth 30 nm) or 645 nm (bandwidth 75 nm), respectively. The FRET signal is calculated as follows: FRET=T730-Alexa730-P(T645-B645) with P=Ru730-B730/Ru645-B645, where T730 is the test well measured at 730 nM, T645 is the test well measured at 645 nm, B730 and B645 are the buffer controls at 730 nm and 645 nm, respectively. cAMP content is determined from the function of a standard curve spanning from 10 μM to 0.13 nM cAMP.
# (§2) EC50 values were determined using Activity Base analysis (ID Business Solution, Limited). The EC50 values for a wide range of cannabinoid agonists generated from this assay were in agreement with the values published in the scientific literature.
# human CB2 receptors = biological target: T2, human CB2 receptors (Homo sapiens, UniProt P34972); assay: functional cAMP assay, CHO cells expressing human CB2 receptors; format: cell-based
# T2 construct: expressed in transfected cells; host or cells: CHO cells
# Protocol: as §1, §2
# [1] = human EC50, functional cAMP assay, CHO cells expressing human CB2, read-out: EC50:CB2
# T1 sequence (P21554 whole entry): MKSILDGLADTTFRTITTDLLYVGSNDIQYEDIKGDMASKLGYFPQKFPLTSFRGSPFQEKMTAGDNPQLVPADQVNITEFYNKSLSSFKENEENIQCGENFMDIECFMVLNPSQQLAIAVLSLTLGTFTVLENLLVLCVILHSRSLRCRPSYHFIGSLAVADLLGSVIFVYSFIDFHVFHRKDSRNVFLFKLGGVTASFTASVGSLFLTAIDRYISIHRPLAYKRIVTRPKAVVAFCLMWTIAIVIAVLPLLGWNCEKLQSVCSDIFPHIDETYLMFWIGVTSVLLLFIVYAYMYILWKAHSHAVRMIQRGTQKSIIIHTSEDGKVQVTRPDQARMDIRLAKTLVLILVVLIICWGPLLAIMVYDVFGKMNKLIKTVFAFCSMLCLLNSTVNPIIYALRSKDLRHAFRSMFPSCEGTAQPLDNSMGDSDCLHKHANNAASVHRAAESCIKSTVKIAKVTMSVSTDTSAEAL
# T2 sequence (P34972 whole entry): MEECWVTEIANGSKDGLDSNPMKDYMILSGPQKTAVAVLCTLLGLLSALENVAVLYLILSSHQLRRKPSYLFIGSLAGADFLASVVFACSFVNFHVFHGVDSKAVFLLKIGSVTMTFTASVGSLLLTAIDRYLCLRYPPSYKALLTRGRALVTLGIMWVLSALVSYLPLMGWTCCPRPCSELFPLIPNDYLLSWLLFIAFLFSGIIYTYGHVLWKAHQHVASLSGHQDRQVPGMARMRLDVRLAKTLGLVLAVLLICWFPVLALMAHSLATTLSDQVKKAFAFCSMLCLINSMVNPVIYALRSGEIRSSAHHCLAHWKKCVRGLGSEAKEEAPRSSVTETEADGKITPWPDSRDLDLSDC
Compound,EC50 (human CB1 receptors) [µM],EC50 (human CB2 receptors) [nM],EC50 (human CB2 receptors; [1]) [nM]
"CC(C)(C)c1nc(N2CCC(F)(F)C2)c2ccn(Cc3ccccc3Cl)c2n1 [Example 1, 2-tert-butyl-7-[(2-chlorophenyl)methyl]-4-(3,3-difluoropyrrolidin-1-yl)pyrrolo[2,3-d]pyrimidine]",> 10,10.1,
"CC(C)(C)c1nc(N2CCC(O)C2)c2ccn(Cc3ccccc3S(C)(=O)=O)c2n1 (stereo not shown) [Example 26, 1-[2-tert-butyl-7-[(2-methylsulfonylphenyl)methyl]pyrrolo[2,3-d]pyrimidin-4-yl]pyrrolidin-3-ol]",> 10,16.8,
"CC(=O)OC1CCN(c2nc(C(C)(C)C)nc3c2ccn3Cc2cccc(Cl)c2Cl)C1 (stereo not shown) [Example 36, [1-[2-tert-butyl-7-[(2,3-dichlorophenyl)methyl]pyrrolo[2,3-d]pyrimidin-4-yl]pyrrolidin-3-yl]acetate]",> 10,85.3,
"Cc1nnc(Cn2ccc3c(N4CCC(F)(F)C4)nc(C(C)(C)C)nc32)o1 [Example 10, 2-[[2-tert-butyl-4-(3,3-difluoropyrrolidin-1-yl)pyrrolo[2,3-d]pyrimidin-7-yl]methyl]-5-methyl-1,3,4-oxadiazole]",> 10,29.6,
"CC(C)(C)c1nc(N2CCC(O)C2)c2ccn(Cc3ccccc3Cl)c2n1 (stereo not shown) [Example 24, 1-[2-tert-butyl-7-[(2-chlorophenyl)methyl]pyrrolo[2,3-d]pyrimidin-4-yl]pyrrolidin-3-ol]",> 10,,411
"CC(C)(C)c1nc(N2CCC(F)(F)C2)c2ccn(Cc3cccc(Cl)c3Cl)c2n1 [Example 5, 2-tert-butyl-7-[(2,3-dichlorophenyl)methyl]-4-(3,3-difluoropyrrolidin-1-yl) pyrrolo[2,3-d]pyrimidine]",> 10,12.5,
"Cc1nnc(Cn2ccc3c(N4CCC(O)C4)nc(C(C)(C)C)nc32)o1 (stereo not shown) [Example 33, 1-[2-tert-butyl-7-[(5-methyl-1,3,4-oxadiazol-2-yl)methyl]pyrrolo[2,3-d]pyrimidin-4-yl]pyrrolidin-3-ol]",> 10,,350
"CC(C)(C)c1nc(N2CC3(COC3)C2)c2ccn(Cc3cccnc3Cl)c2n1 [Example 20, 6-[2-tert-butyl-7-[(2-chloropyridin-3-yl)methyl]pyrrolo[2,3-d]pyrimidin-4-yl]-2-oxa-6-azaspiro[3.3]heptane]",> 10,24.2,
"CC(C)(C)c1nc(N2CC3(COC3)C2)c2ccn(Cc3ncccc3Cl)c2n1 [Example 49, 6-[2-tert-butyl-7-[(3-chloropyridin-2-yl)methyl]pyrrolo[2,3-d]pyrimidin-4-yl]-2-oxa-6-azaspiro[3.3]heptane]",0.307,10.7,
"CC(C)(C)c1nc(N2CCC(F)(F)C2)c2ccn(Cc3ncccc3Cl)c2n1 [Example 7, 2-tert-butyl-7-[(3-chloropyridin-2-yl)methyl]-4-(3,3-difluoropyrrolidin-1-yl)pyrrolo[2,3-d]pyrimidine]",> 10,4.2,
"CC(=O)OC1CCN(c2nc(C(C)(C)C)nc3c2ccn3Cc2nnnn2C)C1 (stereo not shown) [Example 35, [1-[2-tert-butyl-7-[(1-methyltetrazol-5-yl)methyl]pyrrolo[2,3-d]pyrimidin-4-yl]pyrrolidin-3-yl]acetate]",> 10,,278
"CC(=O)OC1CCN(c2nc(C(C)(C)C)nc3c2ccn3Cc2nonc2C)C1 (stereo not shown) [Example 37, [1-[2-tert-butyl-7-[(4-methyl-1,2,5-oxadiazol-3-yl)methyl]pyrrolo[2,3-d]pyrimidin-4-yl]pyrrolidin-3-yl]acetate]",> 10,88.7,
"CC(C)(C)c1nc(N2CC[C@H](O)C2)c2ccn(Cc3ncccc3Cl)c2n1 [Example 47, (3S)-1-[2-tert-butyl-7-[(3-chloropyridin-2-yl)methyl]pyrrolo[2,3-d]pyrimidin-4-yl]pyrrolidin-3-ol]",> 10,5.8,
"CC(C)(C)c1nc(N2CC3(COC3)C2)c2ccn([C@H]3CCOC3)c2n1 [Example 16, 6-[2-tert-butyl-7-[(3S)-oxolan-3-yl]pyrrolo[2,3-d]pyrimidin-4-yl]-2-oxa-6-azaspiro[3.3]heptane]",> 10,78.7,
"Cc1nonc1Cn1ccc2c(N3CC4(COC4)C3)nc(C(C)(C)C)nc21 [Example 22, 6-[2-tert-butyl-7-[(4-methyl-1,2,5-oxadiazol-3-yl)methyl]pyrrolo[2,3-d]pyrimidin-4-yl]-2-oxa-6-azaspiro[3.3]heptane]",> 10,48.4,
"Cc1noc(Cn2ccc3c(N4CC5(COC5)C4)nc(C(C)(C)C)nc32)n1 [Example 15, 6-[2-tert-butyl-7-[(3-methyl-1,2,4-oxadiazol-5-yl)methyl]pyrrolo[2,3-d]pyrimidin-4-yl]-2-oxa-6-azaspiro[3.3]heptane]",> 10,,747
"Cc1nonc1Cn1ccc2c(N3CCC(O)C3)nc(C(C)(C)C)nc21 (stereo not shown) [Example 32, 1-[2-tert-butyl-7-[(4-methyl-1,2,5-oxadiazol-3-yl)methyl]pyrrolo[2,3-d]pyrimidin-4-yl]pyrrolidin-3-ol]",> 10,18.9,
"CC(C)(C)c1nc(N2CC3(COC3)C2)c2ccn(Cc3cccc(Cl)c3Cl)c2n1 [Example 21, 6-[2-tert-butyl-7-[(2,3-dichlorophenyl)methyl]pyrrolo[2,3-d]pyrimidin-4-yl]-2-oxa-6-azaspiro[3.3]heptane]",> 10,91.4,
"Cc1noc(Cn2ccc3c(N4CCC(O)C4)nc(C(C)(C)C)nc32)n1 (stereo not shown) [Example 31, 1-[2-tert-butyl-7-[(3-methyl-1,2,4-oxadiazol-5-yl)methyl]pyrrolo[2,3-d]pyrimidin-4-yl]pyrrolidin-3-ol]",> 10,,316
"CC(C)(C)c1nc(N2CCC(O)C2)c2ccn(Cc3ncccc3Cl)c2n1 (stereo not shown) [Example 30, 1-[2-tert-butyl-7-[(3-chloropyridin-2-yl)methyl]pyrrolo[2,3-d]pyrimidin-4-yl]pyrrolidin-3-ol]",> 10,8.4,
"Cc1nnc(Cn2ccc3c(N4CCC(F)(F)C4)nc(C(C)(C)C)nc32)n1C [Example 11, 2-tert-butyl-4-(3,3-difluoropyrrolidin-1-yl)-7-[(4,5-dimethyl-1,2,4-triazol-3-yl)methyl]pyrrolo[2,3-d]pyrimidine]",> 10,30.8,
"CC(C)(C)c1nc(N2CCC(F)(F)C2)c2ccn(Cc3cccnc3Cl)c2n1 [Example 6, 2-tert-butyl-7-[(2-chloropyridin-3-yl)methyl]-4-(3,3-difluoropyrrolidin-1-yl)pyrrolo[2,3-d]pyrimidine]",> 10,12,
"CC(C)(C)c1nc(N2CCC(O)C2)c2ccn(Cc3c[nH]nc3C(F)(F)F)c2n1 (stereo not shown) [Example 40, 1-[2-tert-butyl-7-[[3-(trifluoromethyl)-1H-pyrazol-4-yl]methyl]pyrrolo[2,3-d]pyrimidin-4-yl]pyrrolidin-3-ol]",> 10,35.6,
"Cn1nnnc1Cn1ccc2c(N3CCC(F)(F)C3)nc(C(C)(C)C)nc21 [Example 12, 2-tert-butyl-4-(3,3-difluoropyrrolidin-1-yl)-7-[(1-methyltetrazol-5-yl)methyl]pyrrolo[2,3-d]pyrimidine]",> 10,14,
"CC(C)(C)c1nc(N2CCC(O)C2)c2ccn([C@@H]3CCOC3)c2n1 (stereo partly drawn) [Example 39, 1-[2-tert-butyl-7-[(3R)-oxolan-3-yl]pyrrolo[2,3-d]pyrimidin-4-yl]pyrrolidin-3-ol]",> 10,35,
"Cn1nnnc1Cn1ccc2c(N3CC4(COC4)C3)nc(C(C)(C)C)nc21 [Example 50, 6-[2-tert-butyl-7-[(1-methyltetrazol-5-yl)methyl]pyrrolo[2,3-d]pyrimidin-4-yl]-2-oxa-6-azaspiro[3.3]heptane]",> 10,,531
"CC(C)(C)c1nc(N2CC[C@H](O)C2)c2ccn(Cc3ccccc3C(F)(F)F)c2n1 [Example 44, (3S)-1-[2-tert-butyl-7-[[2-(trifluoromethyl)phenyl]methyl]pyrrolo[2,3-d]pyrimidin-4-yl]pyrrolidin-3-ol]",> 10,3.3,
"Cc1nnc(Cn2ccc3c(N4CC5(COC5)C4)nc(C(C)(C)C)nc32)o1 [Example 23, 6-[2-tert-butyl-7-[(5-methyl-1,3,4-oxadiazol-2-yl)methyl]pyrrolo[2,3-d]pyrimidin-4-yl]-2-oxa-6-azaspiro[3.3]heptane]",> 10,,468
"CC(C)(C)c1nc(N2CCC(F)(F)C2)c2ccn(Cc3ccccc3S(C)(=O)=O)c2n1 [Example 3, 2-tert-butyl-4-(3,3-difluoropyrrolidin-1-yl)-7-[(2-methylsulfonylphenyl)methyl]pyrrolo[2,3-d]pyrimidine]",> 10,11.6,
